The results in this text go back to PubChem BioAssay AID624092 (The Scripps Research Institute Molecular Screening Center, 2012).

For orientation: IC50 means the midpoint of a concentration-inhibition curve.

In this assay the target is Beta-lactamase TEM (Escherichia coli) (UniProt P62593). The experiment in a line: TEM-1 beta-lactamase inhibitor potency, late-stage follow-up, selectivity assay, biochemical, absorbance, probe candidates and analogs (AID 624092). The note with it: purified TEM-1, nitrocefin hydrolysis, epi-absorbance.
Beta-lactamase TEM (Escherichia coli), sequence (P62593 whole entry, looked up): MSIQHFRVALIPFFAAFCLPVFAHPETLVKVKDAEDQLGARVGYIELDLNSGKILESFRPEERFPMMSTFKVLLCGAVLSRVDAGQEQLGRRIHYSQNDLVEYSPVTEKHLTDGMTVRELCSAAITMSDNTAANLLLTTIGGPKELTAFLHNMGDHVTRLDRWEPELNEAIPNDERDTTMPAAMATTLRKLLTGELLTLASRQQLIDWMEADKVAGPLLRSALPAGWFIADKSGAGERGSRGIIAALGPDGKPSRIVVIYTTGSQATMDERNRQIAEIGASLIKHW

SMILES strings stand for the structures. Calls of active or inactive are those of the source.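 How the source made its calls: active means compounds blocking the TEM-1 enzyme with a half-maximal inhibitory concentration of 10 micromolar or lower; inactive means the rest.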

`CN1CCN(NC(=O)CN2C(=O)/C(=C/c3c(Cl)cccc3Cl)SC2=S)CC1`: the IC50 was > 60 µM (inactive).

Take `CN1CCN(NC(=O)CN2C(=O)/C(=C/c3c(Cl)ccc(Cl)c3Cl)SC2=S)CC1`: the IC50 was > 60 µM (inactive).
